Assay results taken from US20230095103A1, “COMPOSITIONS AND METHODS CONTAINING REDUCED NICOTINAMIDE RIBOSIDE FOR PREVENTION AND TREATMENT OF LUNG DISEASES AND CONDITIONS” (SOCIETE DES PRODUITS NESTLE S.A., priority 2020, published 2023).
Where a name gives a salt, the structure may show the parent alone. Read-outs that look alike come from different tables or passages of the source.

Assays:
adenosine kinase (AK) = target: T1, adenosine kinase (AK) (Mus musculus, UniProt P55264); assay: NRH-induced NAD+ synthesis with adenosine kinase inhibitors in AML12 cells; assay type: cell-based; details: for effect of AK inhibitor on the action of NRH (NAD+ synthesis): inhibitor given before NRH treatment
T1 construct: endogenous in cells; host or cells: AML12 cells
T1 sequence (P55264 whole entry): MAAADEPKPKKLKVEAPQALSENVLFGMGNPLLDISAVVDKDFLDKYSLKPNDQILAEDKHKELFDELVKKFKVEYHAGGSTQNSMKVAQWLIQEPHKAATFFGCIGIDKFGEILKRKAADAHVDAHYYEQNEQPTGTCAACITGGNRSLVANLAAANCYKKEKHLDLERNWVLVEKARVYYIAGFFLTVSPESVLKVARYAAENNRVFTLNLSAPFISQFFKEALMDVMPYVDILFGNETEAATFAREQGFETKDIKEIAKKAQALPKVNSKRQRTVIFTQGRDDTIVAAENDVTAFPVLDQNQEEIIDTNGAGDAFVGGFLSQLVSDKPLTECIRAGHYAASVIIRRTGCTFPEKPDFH
Method: AML12 cells were treated with an adenosine kinase inhibitor (5-IT; […]) for 1 hour prior to NRH treatment at the doses indicated. Then, 1 hour later, acidic extracts were obtained to measure NAD^+ levels. All values in the figure are expressed as mean+/−SEM of 3 independent experiments. * indicates statistical difference at p<0.05 vs. the respective vehicle treated group.

NRK1 = assay: NAD+ levels in primary hepatocytes from control or NRK1 knockout mice; details: after 1 hour of treatment
[1] = Intraperitoneal injection of NR or NRH in mice: tissue NAD+ and circulating metabolites; assay type: in vivo; details: for NAD+ levels in liver, muscle and kidney: mice, IP 500 mg/kg, after 1 h
Method: The above results prompted us to test whether NRH could act as an effective NAD+ precursor in vivo. For this, we first intraperitoneally (IP) injected mice with either NR or NRH (500 mg/kg). […] Importantly, NRH was detectable in circulation after IP injection.

[2] = assay type: in vivo, mice
Method: 8 week-old C57BI/6NTac mice were orally gavaged with either saline (as vehicle), NR (500 mg/kg) or NRH (500 mg/kg). After 1 hour, liver, skeletal muscle and kidney NAD+ levels were evaluated. All results are expressed as mean+/−SEM of n=5 mice per group. * indicates statistical difference at p<0.05 vs. vs. saline-treated mice. # indicates statistical difference at p<0.05 vs. NR treated mice.
Oral administration of NRH led to very similar results to those observed after IP administration. […] NRH was detectable in plasma 1 h after oral administration. In contrast, NR levels were undetectable at 1 h after NR administration.

[3] = Stability of NRH or NR spiked in isolated mouse plasma; assay type: in vitro ADME
Method: (§1) NR degradation to NAM has been proposed as a limitation for its pharmacological efficacy. To evaluate whether NRH was also susceptible to degradation to NAM, we spiked NRH or NR in isolated mouse plasma. […] We also tested the stability of NRH in other matrixes. […] Finally, we also certified NRH stability in water (pH=7, at room temperature) for 48 h.

[4] = tested on: intracellular NRH, NMNH, NR and NMN; assay: Intracellular NAD-related metabolites after NRH or NR treatment; assay type: cell-based; details: for intracellular detection of NRH and NMNH: 5 minutes after treatment
Source text: (§2) Levels of NRH and other NAD-related metabolites in biological samples were obtained by using a cold liquid-liquid extraction using a mixture of methanol:water:chloroform in 5:3:5 (v/v), from which the polar phase was recovered for hydrophilic interaction ultra-high performance liquid chromatography mass spectrometry (UHPLC-MS) analysis. The UHPLC consisted of a binary pump, a cooled autosampler, and a column oven (DIONEX Ultimate 3000 UHPLC+ Focused, Thermo Scientific), connected to a triple quadrupole spectrometer (TSQ Vantage, Thermo Scientific) equipped with a heated electrospray ionisation (H-ESI) source. Of each sample, 2 μL were injected into the analytical column (2.1 mm×150 mm, 5 μm pore size, 200 Å HILICON iHILIC®-Fusion(P)), guarded by a pre-column (2.1 mm×20 mm, 200 Å HILICON iHILIC®-Fusion(P) Guard Kit) operating at 35° C. The mobile phase (10 mM ammonium acetate at pH 9, A, and acetonitrile, B) was pumped at 0.25 mL/min flow rate over a linear gradient of decreasing organic solvent (0.5-16 min, 90-25% B), followed by re-equilibration for a total run time of 30 min. The MS operated in positive mode at 3500 V with multiple reaction monitoring (MRM). The software Xcalibur v4.1.31.9 (Thermo Scientific) was used for instrument control, data acquisition and processing. Retention time and mass detection was confirmed by authentic standards.
A path in which NRH would be converted to NMNH, then to NADH and this would be finally oxidized to NAD+.

[5] = Stability in FBS supplemented media; assay type: in vitro ADME
Method: as §1

INS1-cells = assay: NAD+ levels in INS1-cells after NRH treatment; assay type: cell-based
Method: (§3) The ability of NRH to potently increase NAD+ was tested as well in other cell type models.

[6] = design: species or system mice; details: mouse, in vivo, 250 mg/kg
Method: 8 week-old C57BI/6NTac mice were orally gavaged with either saline (as vehicle), and NRH (250 mg/kg). After 2 hours, liver, skeletal muscle and kidney NRH levels were evaluated. All results are expressed as mean+/−SEM of n=4 mice per group, as areas under the signal by LC-MS analysis, corrected by total protein amount of tissue.

[7] = tested on: Salmonella enterica serovar Typhimurium; assay: Anti-bacterial response of monocyte-derived macrophages against Salmonella (CFU counts); assay type: cell-based; details: 0.01 mM NRH for 42 h prior to infection, MOI 10
Method: Monocyte-derived macrophages were treated with 0.01 mM NRH for 42 h prior to infection with Salmonella enterica serovar Typhimurium for 1 h using a multiplicity of infection of 10. Following infection, macrophages were treated with gentamicin for 2 h before cell lysis. Values show absolute colony forming unit (CFU) counts with each dot representing one donor and each line representing paired samples. Graphs show pooled data of 2 independent experiments with 2-3 donors/experiment.

AML12 hepatocytes = assay: Intracellular NAD+ levels in AML12 hepatocytes after NRH or NR treatment (dose-response, time course); assay type: cell-based
Source text: as §2
Even at such relatively low dose, NRH achieved similar increases in intracellular NAD+ levels to those reached with NR at 50-fold higher concentrations. NRH achieved maximal effects on NAD+ synthesis around the millimolar range, managing to increase intracellular NAD+ levels by more than 10-fold.
NRH actions were also extremely fast (FIG. 3), as significant increases in NAD+ levels were observed within 5 minutes after NRH treatment.

C2C12 myotubes = assay: NAD+ levels in C2C12 myotubes after NRH treatment; assay type: cell-based
Method: as §3

[8] = assay type: physicochemical
Method: as §1

NAMPT = target: T2, NAMPT (Mus musculus, UniProt Q99KQ4); assay: NRH action in the presence of the NAMPT inhibitor FK866; assay type: cell-based; details: with FK866, a NAMPT inhibitor
T2 construct: endogenous in cells
T2 sequence (Q99KQ4 whole entry): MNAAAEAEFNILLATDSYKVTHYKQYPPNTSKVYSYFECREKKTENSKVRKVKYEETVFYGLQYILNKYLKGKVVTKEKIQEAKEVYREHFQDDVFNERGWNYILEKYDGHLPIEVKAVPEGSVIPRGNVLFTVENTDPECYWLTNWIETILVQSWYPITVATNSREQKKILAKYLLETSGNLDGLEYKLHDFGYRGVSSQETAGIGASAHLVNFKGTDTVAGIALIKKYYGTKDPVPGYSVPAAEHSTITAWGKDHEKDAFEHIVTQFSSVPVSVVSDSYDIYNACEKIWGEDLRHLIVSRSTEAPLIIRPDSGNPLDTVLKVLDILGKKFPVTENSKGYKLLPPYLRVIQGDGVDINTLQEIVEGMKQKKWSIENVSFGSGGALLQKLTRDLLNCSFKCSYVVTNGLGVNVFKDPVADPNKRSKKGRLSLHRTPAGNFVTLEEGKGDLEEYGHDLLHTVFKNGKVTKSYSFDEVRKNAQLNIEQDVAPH

[9] = tested on: equilibrative nucleoside transporters (ENTs); assay: NRH-induced NAD+ synthesis under ENT blockade with NBTI; assay type: cell-based; details: in the presence of NBTI
Source text: In order to understand the exact path by which NRH synthesizes NAD+, we initially evaluated whether NRH, could be transported into the cell by equilibrative nucleoside transporters (ENTs).

3T3 fibroblasts = assay: NAD+ levels in 3T3 fibroblasts after NRH treatment; assay type: cell-based
Method: as §3

NMNAT = assay: NRH-induced NAD+ synthesis with the NMNAT inhibitor gallotannin; assay type: cell-based
Source text: As a follow-up step, NMNAT enzymes could catalyze the transition from NMNH to NADH.

[10] = isolated mouse plasma, 2 h of incubation

In the case of `Nc1ncnc2c1c(I)cn2[C@@H]1O[C@H](CO)[C@@H](O)[C@H]1O` [5-IT, 5-iodotubercidin], the “formation of NR and NMN after NRH treatment” value (adenosine kinase (AK); 5-IT treatment) is reported as “prevented” and the “effect of AK inhibitor on the action of NRH (NAD+ synthesis)” value (adenosine kinase (AK)) is reported as “fully ablated the action of NRH”.
In the case of `Nc1ncnc2nc(-c3ccc(N4CCOCC4)nc3)cc(-c3cccc(Br)c3)c12` [ABT-702], the “effect of AK inhibitor on the action of NRH (NAD+ synthesis)” value (adenosine kinase (AK)) is reported as “confirmed”.
For `NC(=O)c1ccc[n+]([C@@H]2O[C@H](CO)[C@@H](O)[C@H]2O)c1` [NR, 1-b-D-ribofuranosyl-3-pyridinecarboxamide salt, reference compound], the “NAD+ levels in NRK1 KO derived primary hepatocytes” value (NRK1) was “failed to increase NAD+ levels”, the “NAD+ levels in liver, muscle and kidney” value [1] was “increased” and the “circulating NAM after NR treatment relative to NRH treatment” value ([2]; C57BI/6NTac, mouse, in vivo, po, 1 h) was −4 fold. For the same compound, the “generation of NAM in plasma” value [3, 10] was “increase in NAM”, the “levels of the compound in plasma” value [3, 10] was “decayed” and the “intracellular detection of NRH and NMNH” value [4] was “not”. The “degradation to NAM” value ([5]; FBS supplemented media) was “occurs”.
In the case of `NC(=O)C1=CN([C@@H]2O[C@H](CO)[C@@H](O)[C@H]2O)C=CC1` [NRH, dihydro-1-beta-D-ribofuranosyl-3-pyridinecarboxamide], the “NAD+ levels” value (INS1-cells) is reported as “highly elevated NAD+ levels”, the “NRH in liver, kidney and muscle” value [6] is reported as “found intact, in high levels” and the “anti-bacterial macrophage response (CFU counts)” value [7] is reported as “able to augment anti-bacterial macrophage response”. For the same compound, the “NAD+ levels in liver, muscle and kidney” value [1] was “increased”, the “NR in circulation after NRH treatment” value ([1]; mouse, in vivo, ip) was “much higher levels than those detected after NR injection itself” and the NRH in circulation ([1]; mouse, in vivo, ip) was “detectable”. For the same compound, the “NAM levels in circulation” value ([1]; mouse, in vivo, ip, 500 mg/kg) was “only a very mild increase”, the “effect on hepatic NAD+ levels” value ([2]; mice, oral administration, compared with NR) was “more potent effect on hepatic NAD+ levels than NR” and the “NR production in plasma” value [3] was “did not lead to NR production”. For the same compound, the “time to significant increase in NAD+ levels after treatment” value (AML12 hepatocytes; AML12 hepatocytes, FIG. 3) was at most 5 min, the “increase of intracellular NAD+ levels at maximal effect” value (AML12 hepatocytes; AML12 hepatocytes, around the millimolar range) was “more than 10 fold” and the “ability to increase intracellular NAD+” value (AML12 hepatocytes; AML12 hepatocytes, compared with NR) was “superior to that of NR”. The “concentration at which NAD+ levels are significantly increased” value (AML12 hepatocytes; AML12 hepatocytes, dose-response, FIG. 2) was 10 µM, the “NR concentration needed for similar increase in intracellular NAD+, relative to NRH” value (AML12 hepatocytes; NRH at 10 μM) was 50 fold and the “NAD+ levels” value (C2C12 myotubes) was “highly elevated NAD+ levels”. The stability in water [8] was 48 h, the “dependence of NRH action on NAMPT” value (NAMPT) was “NAMPT-independent” and the “capacity as extracellular NAD+ precursor under ENT blockade” value [9] was “largely lost its capacity as an extracellular NAD+ precursor”. For the same compound, the “intracellular detection of NRH and NMNH” value [4] was “could be detected”, the “increase in intracellular NR and NMN” value ([4]; after NRH treatment, compared with NR) was “greater than that triggered by NR itself” and the “degradation to NAM” value [5] was “did not degrade to NAM”. The “NAD+ levels” value (3T3 fibroblasts) was “highly elevated NAD+ levels” and the “generation of NMNH, NADH and NAD+ from NRH” value (adenosine kinase (AK); upon inhibition of AK, metabolomic analyses) was “fully blunted”.
For `O=C(OC[C@H]1O[C@@H](OC(=O)c2cc(O)c(O)c(OC(=O)c3cc(O)c(O)c(O)c3)c2)[C@H](OC(=O)c2cc(O)c(O)c(OC(=O)c3cc(O)c(O)c(O)c3)c2)[C@@H](OC(=O)c2cc(O)c(O)c(OC(=O)c3cc(O)c(O)c(O)c3)c2)[C@@H]1OC(=O)c1cc(O)c(O)c(OC(=O)c2cc(O)c(O)c(O)c2)c1)c1cc(O)c(O)c(OC(=O)c2cc(O)c(O)c(O)c2)c1` [gallotannin], the “effect of NMNAT inhibitor on NAD+ synthesis after NRH treatment” value (NMNAT) was “largely compromised NAD+ synthesis after NRH treatment”, the “NRH action after gallotannin treatment” value (NMNAT; NRH at maximal doses (0.5 mM)) was “part of the NRH action remained” and the “NRH action after gallotannin treatment” value (NMNAT; NRH at submaximal doses) was “totally blocked”.
